The text below walks through data of patent publication US9688638B2, “Opioid agonists and uses thereof” (priority 2013, dated 2017).

SMILES strings stand for the structures. pEC50, pIC50, pKi: −log10 of the molar value. Read-outs that look alike come from different tables or passages of the source.

One test addresses KOR (Homo sapiens (Human), UniProt P41145). As to the kind of experiment: cAMP accumulation assay, forskolin-stimulated CHO-K1 cells stably expressing KOR. It is filed as cell-based. The settings on record: for EC50: inhibition of cAMP accumulation, forskolin 20 μM, read-out: EC50 cAMP (nM)-KOR. Here is the method: (§1) Inhibition of cAMP accumulation by select compounds was measured in forskolin-stimulated CHO-K1 cells stably expressing KOR. CHO-K1 cells stably expressing KOR were harvested using Invitrogen Cell Dissociation Buffer, and then centrifuged at 1200 rpm for five minutes. The supernatant was aspirated and cells were resuspended in assay buffer to a density of 4×10^5 cells/mL. 25 μL of cells were added into a white half-area 96 well plate. Fourteen point serial dilutions of test compounds were carried out in assay buffer (PBS with 0.5 mM IBMX). Ketazocine was used as a positive control for each assay. 12.5 μL of compound was added to the cells in duplicate for each test concentration. The cells were then stimulated with 12.5 μL forskolin at a final concentration 20 μM. Cells were incubated for 45 minutes in a 37° C., 5% CO2 water jacketed incubator. CisBio HTRF cAMP assay reagent was used for cAMP quantitation. Two hours after substrate addition, signal at 665/615 nm was measured using the Perkin Elmer Victor X4 HTRF reader. Data analysis was done using GraphPad Prism, sigmoidal dose-response (variable slope) curve fitting.
(cAMP levels reflect the balance of adenylyl cyclase and phosphodiesterase activity.)

The target of test [1] is recombinant human kappa (KOR) opioid receptor (Homo sapiens (Human), UniProt P41145). Kind of test: biochemical. Type of test: binding.
Test [2] deals with recombinant human mu (MOR) opioid receptor (Homo sapiens (Human), UniProt P35372). As to the kind of experiment: Radioligand competition binding assay, mu opioid receptor. The settings on record: [3H]Naloxone 4 nM, CHO-K1 membranes. On the procedure: The binding affinities of certain compounds of the present invention were evaluated using radioligand binding assays in membranes prepared from CHO-K1 cells expressing recombinant human kappa (KOR) or mu (MOR) opioid receptors.
Competition binding experiments were conducted by incubating membrane protein to equilibrium in triplicate in the presence of a fixed concentration of radioligand and increasing concentrations of test compound for evaluation of binding to KOR or single concentration (10 μM) of test compound for evaluation of binding to MOR in 101 μL final volume. The radioligands used were specific for each receptor type, and the assay conditions are described in Table 1. Following incubations, the membranes were rapidly filtered through GF/B filter plate (presoaked with 0.5% polyethyleneimine), washed five times with cold 50 mM Tris-HCl, pH 7.5, and the bound radioactivity was then measured by liquid scintillation counting. Non-specific binding was measured in the presence of excess ligand; this value was subtracted from the total binding to yield the specific binding at each test concentration.
Ki (affinity of test compound) was obtained using the Cheng Prusoff correction using experimental Kd (affinity of radioligand) values that were previously determined under these assay conditions. For MOR binding, compounds were tested at one concentration, 10 μM, to evaluate its ability to inhibit specific radioligand binding. The values are expressed as percent inhibition of specific binding and greater than 50% inhibition of binding was considered to be significant.
With respect to determining MOR binding, an approach similar to one used for KOR binding was used.
On the technique in general: Loss of bound radioactivity is the signal in a displacement assay; it reports binding, not function.

Another test concerns the target MOR (Homo sapiens (Human), UniProt P35372). As to the kind of experiment: cAMP accumulation assay, forskolin-stimulated CHO-K1 cells stably expressing MOR. Type of test: cell-based. The settings on record: inhibition of cAMP accumulation. On the procedure: as §1
Using a similar approach, inhibition of cAMP accumulation by select compounds was also determined in forskolin-simulated CHO-K1 cells stably expressing MOR (wherein for this assay a density of 8×10^5 cells/mL was used and the positive control was DAMGO). Certain compounds of the present invention were tested as described above.

The subject of test [3] is Swiss Albino or CD-1 male mice. Kind of test: Acetic acid writhing (AAW) analgesic assay. It is filed as in vivo. The settings on record: Mus musculus, 20 min, read-out: AAW % Efficacy. Here is the method: Approaches for evaluating analgesic activity of a compound of the present invention in vivo include a “writhing test.” Briefly, the compound to be tested is administered [by, for example, injection (e.g., subcutaneous injection)] to the mouse. Thereafter, a 0.5% acetic acid solution is administered (i.p.) to a mouse and the numbers of writhing responses are counted for twenty minutes. Antinociception is quantified as reduction in the number of writhes respective to vehicle.
An analgesic assay was used to determine whether a given compound can reduce and/or prevent visceral pain in mice. The assay utilizes Swiss Albino or CD-1 male mice (5-10 mice per group), each mouse being approximately 0.015-0.030 kg on the study day. Mice were treated according to standard protocols.
The animal was given an intraperitoneal (IP) injection of an irritant (acetic acid) that induces “writhing” which may include: contractions of the abdomen, twisting and turning of the trunk, arching of the back and the extension of the hindlimbs. Mice are given a single IP injection (0.1 mL/10 g bodyweight) of a 0.5% acetic acid solution. After the injection the animals were returned to their observation enclosure and their behavior was observed. Contractions were counted between 0 and 20 minutes after the injection. The animals were used once. In certain instances, the test articles were administered at multiple doses to determine a dose response curve.
Table 4 provides the results for certain compounds of the present invention that were administered subcutaneously. Table 5 provides the results for certain compounds of the present invention that were administered orally.
Background: In writhing tests, fewer writhes than in controls are read as antinociception.

Where [4] appears, read: Cheng Prusoff correction, [3H]Diprenorphine 1 nM, CHO-K1 membranes, read-out: Kappa receptor binding Ki.
Setting [5] is: [3H]Diprenorphine 1 nM, CHO-K1 membranes, read-out: Kappa receptor binding IC50.

The EC50 is the concentration giving half of the maximal effect. One may read the pIC50 as the negative decadic logarithm of the IC50, by convention in mol/L. Broadly, the pKi is the negative decadic logarithm of the Ki, by convention in mol/L. The pEC50 is −log10 of the EC50, conventionally taken in molar units. The low end stands for a high EC50, the high end for a low EC50.

`COCCOCCOCCOCCOCCNc1ccc2c(c1)[C@]1(C)CCN(CC3CC3)[C@H](C2=O)[C@@H]1C` [Compound 2, (2S,6R,11R)-3-(Cyclopropylmethyl)-6,11-dimethyl-8-(2,5,8,11,14-pentaoxahexadecan-16-ylamino)-3,4,5,6-tetrahydro-2,6-methano-3-benzazocin-1(2H)-one]: the EC50 at KOR turned out to be 139 nM. In test [1], the pIC50 was 5.62 and the pKi is 6.26.

`C[C@H]1[C@H]2C(=O)c3ccc(NC(CO)CO)cc3[C@]1(C)CCN2CC1CC1` [Compound 24, (2S,6R,11R)-3-(cyclopropylmethyl)-8-((1,3-dihydroxypropan-2-yl)amino)-6,11-dimethyl-3,4,5,6-tetrahydro-2,6-methanobenzo[d]azocin-1(2H)-one]: the half-maximal effective concentration (EC50) at KOR came to 107 nM; at MOR, 598 nM. Besides, the pKi in test [1] (setting [4]) is 6.31; in test [2], 5.74.

In turn, `COCCOCCOCCOc1ccc2c(c1)[C@]1(C)CCN(CC3CC3)[C@H](C2=O)[C@@H]1C` [Compound 4, (2S,6R,11R)-3-(Cyclopropylmethyl)-8-{2-[2-(2-methoxyethoxy)ethoxy]ethoxy}-6,11-dimethyl-3,4,5,6-tetrahydro-2,6-methano-3-benzazocin-1(2H)-one] had a pEC50 at KOR of 8.03. In addition, in test [1], the pIC50 was 6.06 and the pKi is 6.69. Moreover, in test [3] (po, oral, 200 mg/kg), the inhibition in vivo at 200 mg/kg amounted to 3.8%. Besides, in test [3] (sc, subcutaneous, 3 mg/kg), the inhibition in vivo at 3 mg/kg is 0%. In addition, the inhibition in vivo at 10 mg/kg in test [3] (sc, subcutaneous) turned out to be 39.7%. Besides, in test [3] (sc, subcutaneous, 30 mg/kg), the inhibition in vivo at 30 mg/kg was found to be 100%.

As for `C[C@H]1[C@H]2C(=O)c3ccc(NC(C)(C)CO)cc3[C@]1(C)CCN2CC1CC1` [Compound 23, (2S,6R,11R)-3-(Cyclopropylmethyl)-8-((1-hydroxy-2-methylpropan-2-yl)amino)-6,11-dimethyl-3,4,5,6-tetrahydro-2,6-methanobenzo[d]azocin-1(2H)-one], the EC50 at KOR stood at 395 nM; at MOR, 3290 nM. The pKi in test [1] (setting [4]) is 5.98; in test [2] it was 5.10.

On KOR, `COCCOCCOCCOCCOCCOCCOCCOc1ccc2c(c1)[C@]1(C)CCN(CC3CC3)[C@H](C2=O)[C@@H]1C` [Compound 6, (2S,6R,11R)-3-(Cyclopropylmethyl)-8-(2,5,8,11,14,17,20-heptaoxadocosan-22-yloxy)-6,11-dimethyl-3,4,5,6-tetrahydro-2,6-methano-3-benzazocin-1(2H)-one] showed a pEC50 of 6.45. In addition, in test [1], the pIC50 is 5.22 and the pKi was 5.85.

On to `COCCOCCOCCOCCOCCO[C@@H]1c2ccc(O)cc2[C@]2(C)CCN(CC3CC3)[C@H]1[C@@H]2C` [Compound 25, (1R,2S,6R,11R)-1-(2,5,8,11,14-pentaoxahexadecan-16-yloxy)-3-(cyclopropylmethyl)-6,11-dimethyl-1,2,3,4,5,6-hexahydro-2,6-methanobenzo[d]azocin-8-ol], for which the EC50 on KOR came out at 195 nM. Moreover, in test [1], the pKi was 6.02.

Take `C[C@H]1[C@H]2C(=O)c3ccc(O)cc3[C@]1(C)CCN2CC1CC1` [Ketazocine, (2S,6R,11R)-3-(cyclopropylmethyl)-8-hydroxy-6,11-dimethyl-3,4,5,6-tetrahydro-2,6-methanobenzo[d]azocin-1(2H)-one, reference compound]: the pEC50 on KOR is 9.26. In test [1] (setting [4]), the pKi was 8.89. Moreover, the pIC50 in test [1] (setting [5]) was 8.25. In addition, in test [2], the pIC50 was 8.08. Besides, in test [3] (po, oral), the inhibition in vivo at 0.1 mg/kg was found to be 12.8%, the inhibition in vivo at 1 mg/kg came out at 34.5% and the inhibition in vivo at 10 mg/kg came to 58.9%. Also, in test [3] (po, oral, 100 mg/kg), the inhibition in vivo at 100 mg/kg was found to be 100%. For the same compound, the inhibition in vivo at 0.01 mg/kg in test [3] (sc, subcutaneous, 0.01 mg/kg) worked out at 10.6%. For the same compound, in test [3] (sc, subcutaneous), the inhibition in vivo at 0.1 mg/kg came out at 50% and the inhibition in vivo at 1 mg/kg turned out to be 100%.

Take `COCCOCCOCCOCCOCCOCCOCCNc1ccc2c(c1)[C@]1(C)CCN(CC3CC3)[C@H](C2=O)[C@@H]1C` [Compound 3, (2S,6R,11R)-3-(Cyclopropylmethyl)-8-(2,5,8,11,14,17,20-heptaoxadocosan-22-ylamino)-6,11-dimethyl-3,4,5,6-tetrahydro-2,6-methano-3-benzazocin-1(2H)-one]: the EC50 on KOR is 122 nM. In addition, the pKi in test [1] (setting [4]) is 6.11. Moreover, the pIC50 in test [1] (setting [5]) was 5.48.
